Measurements published in patent US4109008A, “Hydrazine derivatives useful as anti-hypertensives” (Hexachimie, priority 1976, dated 1978).

Test system: male rats exhibiting a spontaneous genetically transmissible hypertension
Experiment: Systolic arterial pressure and rate of heartbeat in spontaneously hypertensive rats after intraperitoneal administration
Assay type: in vivo
Conditions: Rattus norvegicus, ip, 0.5 h, 40 mg/kg given intraperitoneally, T + 30 mins, read-out: percentage variation and mean deviation of the systolic arterial pressure, T + 30 mins
Description: The arterial pressure is measured by a "Narco Bio System" sphygmomanometer. A sleeve is placed over the base of the tail and a detector records the pulse downstream from the sleeve. The sleeve is then inflated until the pulse is stopped, thus indicating the systolic pressure. The rate of heartbeat is also recorded. The products to be studied are converted to a suspension by means of "Tween 80" and administered intraperitoneally in a volume of 1 cm^3 per 100 grams of body weight. The measurements are repeated at regular intervals.

Row | Structure (SMILES) | change in vivo at 40 mg/kg [%]
1 | C#CCOc1ccccc1C=NNC(=N)N [Example 1, N-[o-(Prop-2-Y-noxy)-Benzylidene]-N'-Amidino-Hydrazine] | -52 ± 3.4
2 | Cn1c(=O)n(C)c2cc(C=NNC3=NCCN3)ccc21 [Example 12, N-(1,3-Dimethyl-2-Oxo-5-Benzimidazolylidene)-N'-Imidazolino-Hydrazine] | -39 ± 7.4
